In DBAASP:
≈ marks a conversion by molar mass, not a printed value.

Columns and labels:
Assay in all cases: ≥ marks a high value that may be exact or a test limit, other limits are often not marked, values filed in µg/mL are converted to µM
[1] = test system: Bacillus subtilis DSM 347
[2] = test system: Staphylococcus xylosus DSM 20287
[3] = test system: Escherichia coli DSM 1116
[4] = test system: Franconibacter helveticus DSM 18390
[5] = test system: Pseudomonas aeruginosa NCIB 10421
[6] = test system: Candida tropicalis IOC 4560
[7] = test system: Serratia marcescens ATCC 4112
Candida albicans MDM8 = test system: Candida albicans MDM8
[8] = test system: Staphylococcus aureus ATCC 29213
[9] = test system: Bacillus subtilis ATCC 6633
Micrococcus luteus A270 = test system: Micrococcus luteus A270
[10] = test system: Enterobacter cloacae beta-12
Escherichia coli SBS 363 = test system: Escherichia coli SBS 363
[11] = test system: Bacillus megaterium ATCC 10778
[12] = test system: Staphylococcus aureus ATCC 9144
[13] = test system: Candida albicans ATCC 90028
[14] = test system: Staphylococcus aureus USA 300
[15] = test system: Pseudomonas aeruginosa PAO1
[16] = test system: Escherichia coli NCTC 12923
[17] = test system: Klebsiella pneumoniae NCTC 13368
[18] = test system: Acinetobacter baumannii ATCC 17978

MIC [1]	MIC [2]	MIC [3]	MIC [4]	MIC [5]	MIC [6]	MIC [7]	MIC (Candida albicans MDM8)	MIC [8]	MIC [9]	MIC (Micrococcus luteus A270)	MIC [10]	MIC (Escherichia coli SBS 363)	MIC [11]	Compound	other results
28.9 µM (≈ 45.2 µg/mL)	≥ 163 µM	≥ 163 µM	≥ 116 µM	–	–	–	–	–	–	–	–	–	–	CC[C@H](C)[C@H](N)C(=O)N[C@@H](C)C(=O)N[C@@H](CCCCN)C(=O)N[C@H](C(=O)N[C@@H](C)C(=O)NCC(=O)N[C@@H](CCCCN)C(=O)N[C@H](C(=O)N[C@@H](C)C(=O)N[C@@H](CCCCN)C(=O)N[C@H](C(=O)N[C@@H](C)C(=O)NCC(=O)N[C@@H](CCCCN)C(=O)N[C@H](C(=O)N[C@@H](C)C(N)=O)[C@@H](C)CC)[C@@H](C)CC)[C@@H](C)CC)[C@@H](C)CC [IAKIAGKIAKIAGKIA]	–
0.89 µM (≈ 2 µg/mL)	0.89 µM (≈ 2 µg/mL)	1.78 µM (≈ 4 µg/mL)	1.26 µM (≈ 2.83 µg/mL)	–	–	–	–	–	–	–	–	–	–	CC[C@H](C)[C@H](N)C(=O)N[C@@H](C)C(=O)N[C@@H](CCCCN)C(=O)N[C@H](C(=O)N[C@@H](C)C(=O)NCC(=O)N[C@@H](CCCCN)C(=O)N[C@H](C(=O)N[C@@H](C)C(=O)N[C@@H](CCCCN)C(=O)N[C@H](C(=O)N[C@@H](C)C(=O)NCC(=O)N[C@@H](CCCCN)C(=O)N[C@H](C(=O)N[C@@H](C)C(=O)N[C@@H](CCCCN)C(=O)N[C@H](C(=O)N[C@@H](C)C(=O)NCC(=O)N[C@@H](CCCCN)C(=O)N[C@H](C(=O)N[C@@H](C)C(N)=O)[C@@H](C)CC)[C@@H](C)CC)[C@@H](C)CC)[C@@H](C)CC)[C@@H](C)CC)[C@@H](C)CC [IAKIAGKIAKIAGKIAKIAGKIA]	–
–	–	–	–	≥ 50 µM	3.13 µM (≈ 4.88 µg/mL)	0.36 µM (≈ 0.561 µg/mL)	3.13 µM (≈ 4.88 µg/mL)	1.56 µM (≈ 2.43 µg/mL)	0.78 µM (≈ 1.22 µg/mL)	0.78 µM (≈ 1.22 µg/mL)	12.5 µM (≈ 19.5 µg/mL)	0.78 µM (≈ 1.22 µg/mL)	0.78 µM (≈ 1.22 µg/mL)	CC[C@H](C)[C@H](N)C(=O)N[C@@H](CC(C)C)C(=O)N[C@@H](CC(C)C)C(=O)N[C@@H](CCCCN)C(=O)N[C@H](C(=O)N[C@@H](Cc1c[nH]c2ccccc12)C(=O)N[C@@H](CCC(=O)O)C(=O)NCC(=O)N[C@H](C(=O)N[C@@H](CCCCN)C(=O)N[C@@H](CO)C(=O)N[C@@H](CC(C)C)C(=O)N[C@@H](Cc1ccccc1)C(N)=O)[C@@H](C)CC)[C@@H](C)CC [ILLKIWEGIKSLF]	–
–	–	–	–	25 µM (≈ 38.4 µg/mL)	1.56 µM (≈ 2.4 µg/mL)	0.78 µM (≈ 1.2 µg/mL)	3.13 µM (≈ 4.81 µg/mL)	6.25 µM (≈ 9.61 µg/mL)	0.78 µM (≈ 1.2 µg/mL)	0.78 µM (≈ 1.2 µg/mL)	12.5 µM (≈ 19.2 µg/mL)	3.13 µM (≈ 4.81 µg/mL)	0.78 µM (≈ 1.2 µg/mL)	CC[C@H](C)[C@H](N)C(=O)N[C@@H](CC(C)C)C(=O)NCC(=O)N[C@@H](CCCCN)C(=O)N[C@@H](Cc1ccccc1)C(=O)N[C@@H](Cc1c[nH]c2ccccc12)C(=O)N[C@@H](CCC(=O)O)C(=O)NCC(=O)N[C@H](C(=O)N[C@@H](CCCCN)C(=O)N[C@@H](CO)C(=O)N[C@@H](CC(C)C)C(=O)N[C@@H](Cc1ccccc1)C(N)=O)[C@@H](C)CC [ILGKFWEGIKSLF]	–
–	–	–	–	–	–	–	–	–	–	–	–	–	–	C[C@H](NC(=O)CNC(=O)[C@H](CCCCN)NC(=O)[C@@H](N)CS)C(=O)N[C@@H](Cc1ccccc1)C(=O)N[C@@H](CCCCN)C(=O)N[C@@H](CCC(N)=O)C(=O)N[C@H](C(=O)N[C@@H](CS)C(=O)N[C@@H](CCCCN)C(=O)N[C@@H](CS)C(=O)N[C@@H](Cc1ccc(O)cc1)C(N)=O)[C@@H](C)O [CKGAFKQTCKCY]	MIC [12]: ≥ 92.8 µM; MIC [13]: 4.4 µM (≈ 6.07 µg/mL); MIC [14]: ≥ 92.8 µM; MIC [15]: > 92.8 µM; MIC [16]: ≥ 92.8 µM; MIC [17]: ≥ 92.8 µM; MIC [18]: ≥ 92.8 µM
